Test results: patent publication US8530680B2, “System and method for controlling growth of microorganisms with brominated furanones” (Syracuse University, priority 2008, dated 2013)
Entries after “also recorded” stand apart in the source; their conditions may differ.

Key:
[1] = tested on: Candida albicans strain SC5341; test: C. albicans growth curves in SD medium with furanones (96-well plates, OD600); format: cell-based; details: tested 2.5, 5, 10, 20 μg/mL
Experimental: To evaluate the effects of furanones on fungal growth, C. albicans was grown in a synthetic dextrose (“SD”) medium supplemented with 0, 2.5, 5, 10, or 20 μg/mL of one of eight different brominated furanones and […] furanones (BF1, BF8, BF9, BF11, BF12, BF14, NF1, NF2, or NF3).
The Candida albicans strain SC5341 used in this study was provided by Dr. Sean Palecek from the University of Wisconsin-Madison. C. albicans was routinely grown overnight at 30° C. and shaken at 200 rpm in a SD medium containing 0.67% (wt/vol) yeast nitrogen base without amino acids and 2% (wt/vol) dextrose, which was buffered with 0.165 M morpholinepropanesulfonic acid (MOPS, Sigma), and pH-adjusted to 7.0 with solid NaOH. The overnight culture was then sub-cultured in 25 mL of fresh SD medium to an initial optical density at 600 nm (OD600) of 0.005 and grown till the OD600 reached 1.0. The OD600 values were measured using a Spectronic GENESYS 5 UV-Vis spectrophotometer (Thermo Fisher Scientific®, Waltham, Mass.). This culture was used to inoculate sterile 96-well plates (Costar® No. 9017, Corning®, Corning, N.Y.) containing SD medium supplemented with furanones at different concentrations (0, 2.5, 5, 10, 20 μg/mL) to an OD600 of 0.06 in at least duplicates. The BF1, 8, 9, 11, 12, 14 and NF1-3 compounds were dissolved in ethanol at a concentration of 20 mg/mL. The BF10 compound was dissolved in methanol at a concentration of 20 mg/mL. The amounts of methanol and ethanol were adjusted to be the same for each sample to eliminate the effects of solvents. The samples were then incubated at 30° C. with shaking at 200 rpm, and the OD600 in each well was measured at 0, 4, 7, 17, and 42 hours after inoculation, using an ELx808™ Absorbance Microplate Reader (BioTek Instruments® Inc., Winooski, Vt.).

[2] = tested on: Gloeophyllum trabeum strain GT598; test: Fungal growth on MEA plates with furanone; format: cell-based; set-up: key to growth on plate, GT598: −: No growth was observed; +: normal growth was seen; details: for growth on plate, GT598: 60 μg/mL, 7 days at 30° C.; for growth inhibition test, inhibitory concentration, GT598: tested at 1, 5, 30, 60 μg/mL, 7 days
Experimental: (§1) This Example examines the effect of brominated furanones on the growth of fungi associated with damage to building material. Six fungal strains were the subject of these experiments; Gloeophyllum trabeum (strains GT598 and GT599), Chaetomium globosum (wildtype strain and CG572), and Trametes versicolor (strains TV7B2-59 and TV57MAD277). The species were developed on 2% Malt-Extract Agar (MEA) plates and stored inverted at 4° C. The stocks were refreshed by streaking new plates every two months.
(§2) The brominated and non-brominated furanones were added to MAE agar plates at different concentrations. The brominated furanones were dissolved in either ethanol (“EtOH”) or methanol (“MeOH”) as stock solutions, as shown in Table 5. The non-brominated furanones were purchased from Sigma (St. Louis, Mo.). The furanone stocks were stored at 4° C.
(§3) MAE agar plates containing the same amounts of ethanol/methanol were also prepared as negative controls to eliminate any solvent effects. The plates were prepared using either 90 mm or 60 mm petri dishes and were stored inverted at 4° C. until use.
(§4) Different concentrations of furanones were studied to compare their antifungal activities. The plates were inoculated with the six fungal strains using a platinum loop and were incubated upside down at 30° C. for 7 days to monitor the growth. The initial screening was performed using a single 60 μg/mL furanone concentration.

[3] = tested on: Chaetomium globosum CG572; test: Fungal growth on MEA plates with furanone; format: cell-based; set-up: key to growth on plate, CG572: −: No growth was observed; +: normal growth was seen; details: for growth on plate, CG572: 60 μg/mL, 7 days at 30° C.; for growth inhibition test, inhibitory concentration, CG572: tested at 1, 5, 30, 60 μg/mL, 7 days
Experimental: as §1, §2, §3, §4

[4] = tested on: Trametes versicolor strain TV7B2-59; test: Fungal growth on MEA plates with furanone; format: cell-based; set-up: key to growth on plate, TV7B2-59: −: No growth was observed; +: normal growth was seen; details: for growth on plate, TV7B2-59: 60 μg/mL, 7 days at 30° C.; for growth inhibition test, inhibitory concentration, TV7B2-59: tested at 1, 5, 30, 60 μg/mL, 7 days
Experimental: as §1, §2, §3, §4

[5] = tested on: Trametes versicolor strain TV57MAD277; test: Fungal growth on MEA plates with furanone; format: cell-based; set-up: key to growth on plate, TV57MAD277: −: No growth was observed; +: normal growth was seen; details: for growth on plate, TV57MAD277: 60 μg/mL, 7 days at 30° C.; for growth inhibition test, inhibitory concentration, TV57MAD277: tested at 1, 5, 30, 60 μg/mL, 7 days
Experimental: as §1, §2, §3, §4

[6] = tested on: P. aeruginosa strain PAO1 biofilm formation; test: Microplate-based biofilm assay (crystal violet, OD540) of P. aeruginosa; format: cell-based, Pseudomonas aeruginosa; details: 24 hours
Experimental: A microplate-based biofilm assay was used to further investigate whether furanones inhibit biofilm formation of P. aeruginosa strain PAO1. For this biofilm assay the strain was grown at 30° C. without shaking in M63 minimal medium containing 13.6 g/L KH2PO4, 2 g/L (NH4)2SO4, 0.5 mg/L FeSO4, 0.12 g/L MgSO4, 5 g/L vitamin free casamino acids and 5 g/L glucose (pH 7.0). The synthesis of the brominated furanones, the structures of which are shown in FIGS. 1A and 1B, was according to Example 1.
The overnight culture of P. aeruginosa was used to inoculate fresh M63 medium supplemented with furanones (0, 30 or 60 μg/mL) to an OD600 of 0.05 in 96-well plates. Four replicates were tested for each condition. The plates were incubated at 30° C. without shaking for 24 hours. The biofilm mass was quantified by following the protocol described previously. Briefly, the planktonic cells were carefully removed by pipetting and the plates with biofilms were washed three times with deionized H2O and dried by gently patting on a piece of paper towel. To quantify biofilms, the plates were stained with 0.1% crystal violet and incubated for 20 minutes at room temperature. The plates were then washed three times with deionized H2O to remove extra dyes. An OD540 was measured to quantify the biofilm on the bottom of each well.

[7] = tested on: P. aeruginosa strain PAO1; test: Microplate based planktonic growth assay of P. aeruginosa; format: cell-based, Pseudomonas aeruginosa; details: for reduction of specific growth rate compared to furanone-free control: planktonic growth
Experimental: The antimicrobial activities of furanones on the planktonic growth of P. aeruginosa strain PAO1 was examined using a microplate based growth assay. An overnight culture of the strain grown in LB medium at 30° C. was used to inoculate M63 minimal medium supplemented with furanones at 0, 30 or 60 μg/mL to an optical density at 600 nm (OD600) of 0.05 in 96-well plates. The plates were then incubated at 30° C. with shaking at 200 rpm. The reading of OD600 was measured every 60 minutes for six hours using a microplate reader (ELx808, BioTek Instruments). Six replicates were tested for every sample. The synthesis of the brominated furanones, the structures of which are shown in FIGS. 1A and 1B, was according to Example 1.

Row | Compound | lowest concentration showing growth inhibition [1] [µg/mL] | growth on plate, GT598 [2] | growth inhibition test, inhibitory concentration, GT598 [2] [µg/mL] | growth on plate, CG572 [3] | growth inhibition test, inhibitory concentration, CG572 [3] [µg/mL] | growth on plate, TV7B2-59 [4] | growth inhibition test, inhibitory concentration, TV7B2-59 [4] [µg/mL] | growth on plate, TV57MAD277 [5] | growth inhibition test, inhibitory concentration, TV57MAD277 [5] [µg/mL] | inhibition of biofilm formation ([6]; 30 μg/mL) | inhibition of biofilm formation ([6]; 60 μg/mL) | inhibition at 30 µg/mL ([6]; Pseudomonas aeruginosa, PAO1, 30 μg/mL, read-out: inhibition of biofilm formation compared to 24-hour biofilm mass of furanone-free control) [%] | inhibition at 60 µg/mL ([6]; Pseudomonas aeruginosa, PAO1, 60 μg/mL, read-out: inhibition of biofilm formation compared to 24-hour biofilm mass of furanone-free control) [%] | inhibitory effect on planktonic growth ([7]; 30 μg/mL) | inhibitory effect on planktonic growth ([7]; 30 and 60 μg/mL (up to 60 μg/mL)) | reduction of specific growth rate compared to furanone-free control ([7]; 30 μg/mL) [%] | reduction of specific growth rate compared to furanone-free control ([7]; 60 μg/mL) [%]
1 | CCCCC1=C(Br)/C(=C/Br)OC1=O [BF1, 4-bromo-5Z-(bromomethylene)-3-butylfuran-2-one] | 20 | − | 30 | − | 30 | − | 5 | − | 5 |  |  |  |  |  |  |  | 
2 | CC1=C(Br)/C(=C/Br)OC1=O [BF8, 4-bromo-5Z-(bromomethylene)-3-methylfuran-2-one] | 5 | − | 5 | − | 30 | − | 30 | − | 30 | significantly inhibited | significantly inhibited | 86.1 ± 7.6 | 93.8 ± 3.7 | did not exhibit significant inhibitory effects | did not inhibit; also recorded: no apparent effect |  | 
3 | CC1=CC(=C(Br)Br)OC1=O [BF9, 5-(dibromomethylene)-3-methylfuran-2-one] | 20 | − | 60 | − | 60 | − | 5 | − | 5 | significantly inhibited | significantly inhibited |  |  |  |  | 29.3 | 42.7
4 | O=C1OC(=C(Br)Br)C=C1C(Br)Br [BF10, 3-(dibromomethyl)-5-(dibromomethylene)furan-2-one] | 20 | − | 30 | − | 30 | − | 30 | − | 5 | didn't show apparent inhibition | significantly inhibited; also recorded: inhibited biofilm formation completely |  |  | did not exhibit significant inhibitory effects |  |  | 10
